Results as given in patent publication US20250188102A1, “TRIAZINE COMPOUND, INTERMEDIATE THEREOF, PREPARATION METHOD THEREFOR AND USE THEREOF” (priority 2022, published 2025).
Like-named read-outs stand apart in the source and are kept apart here.

Columns and labels:
MERS Mpro protease = MERS Mpro protease (Middle East respiratory syndrome-related coronavirus (isolate United Kingdom/H123990006/2012) (MERS-CoV) (Betacoronavirus England 1), UniProt K9N7C7); experiment: biochemical
in vitro [1] = assay type: cell-based; settings: human
Experimental: (§1) Nine cell lines originated from different human tissues (Table 2) are selected to evaluate the cytotoxicity of the tested compounds. Sorafenib or Taxol are used as cytotoxic control compounds. The cells and compounds are added to the 96-well test plate. Cells are cultured in culture medium containing 10% FBS, 5% CO2 and 37° C. for 3 days, and then cell viability was detected by CellTiter-Glo reagent. The raw data are used for compound cytotoxicity calculations. The dose-response curves of the compounds are analyzed by GraphPad Prism software and CC50 values are calculated. The compound will be tested at 8 concentration points, 3-fold series dilution, and 3-compound pores.

in vitro [2] = assay type: cell-based; settings: human; remark: listed apart in the source
Experimental: as §1

in vitro [3] = assay type: cell-based; settings: human; remark: listed apart in the source
Experimental: as §1

in vitro [4] = assay type: cell-based; settings: human; remark: listed apart in the source
Experimental: as §1

in vitro [5] = assay type: cell-based; settings: human; remark: listed apart in the source
Experimental: as §1

in vitro [6] = assay type: cell-based; settings: human; remark: listed apart in the source
Experimental: as §1

in vitro [7] = assay type: cell-based; settings: human; remark: listed apart in the source
Experimental: as §1

in vitro [8] = assay type: cell-based; settings: human; remark: listed apart in the source
Experimental: as §1

in vitro [9] = assay type: cell-based; settings: human; remark: listed apart in the source
Experimental: as §1

in vivo = settings: male, Sprague-Dawley, rat; for AUC(0-inf): AUC0-∞; for half-life: T1/2
in vitro [10] = assay type: in vitro ADME; settings: rat, hepatocytes
in vitro [11] = assay type: in vitro ADME, people; settings: human, hepatocytes
HKU1 Mpro protease = HKU1 Mpro protease (Human coronavirus HKU1 (isolate N1) (HCoV-HKU1), UniProt P0C6X2); assay type: biochemical; settings: read-out: Enzymatic Determination of IC50 of compound by Mpro, HKU1
NL63 Mpro protease = NL63 Mpro protease (Human coronavirus NL63 (HCoV-NL63), UniProt P0C6X5); experiment: Mpro enzymatic assay, other human coronaviruses: NL63; assay type: biochemical; settings: read-out: Enzymatic Determination of IC50 of compound by Mpro, NL63
SARS-CoV-2 = settings: read-out: viral inhibitory activity EC50, cited from earlier work
in vitro [12] = settings: human
SARS-CoV-2 strain = experiment: microbe, parasite or virus in culture; settings: Severe acute respiratory syndrome coronavirus 2, read-out: EC50 of SARS-CoV-2 strain
[13] = liver microsomes; rat
in vitro [14] = settings: rat, microsomes
[15] = rat, stated before the oral figures (intravenous per Table 11)
[16] = CCRF-CEM, 3 days, read-out: CC50
[17] = Colo-205, 3 days, read-out: CC50

Sequence of NL63 Mpro protease (P0C6X5 2940-3242 limits assumed): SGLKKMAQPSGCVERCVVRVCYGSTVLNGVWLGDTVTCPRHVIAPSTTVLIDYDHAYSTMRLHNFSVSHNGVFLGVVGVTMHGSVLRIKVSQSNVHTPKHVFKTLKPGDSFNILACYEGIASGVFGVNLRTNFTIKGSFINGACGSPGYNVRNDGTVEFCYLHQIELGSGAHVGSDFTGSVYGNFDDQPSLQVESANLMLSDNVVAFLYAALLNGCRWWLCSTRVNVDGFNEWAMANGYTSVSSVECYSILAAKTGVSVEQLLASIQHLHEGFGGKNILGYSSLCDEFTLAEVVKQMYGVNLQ
Sequence of HKU1 Mpro protease (P0C6X2 3335-3637 limits assumed): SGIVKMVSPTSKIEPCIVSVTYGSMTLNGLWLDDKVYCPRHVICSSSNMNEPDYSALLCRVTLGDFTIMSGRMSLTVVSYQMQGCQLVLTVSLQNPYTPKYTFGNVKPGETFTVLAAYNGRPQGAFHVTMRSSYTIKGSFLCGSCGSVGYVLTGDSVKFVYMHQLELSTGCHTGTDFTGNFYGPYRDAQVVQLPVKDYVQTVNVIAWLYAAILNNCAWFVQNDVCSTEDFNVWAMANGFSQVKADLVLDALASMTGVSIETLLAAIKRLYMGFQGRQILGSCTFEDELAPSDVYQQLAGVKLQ
Sequence of MERS Mpro protease (K9N7C7 3248-3553 limits assumed): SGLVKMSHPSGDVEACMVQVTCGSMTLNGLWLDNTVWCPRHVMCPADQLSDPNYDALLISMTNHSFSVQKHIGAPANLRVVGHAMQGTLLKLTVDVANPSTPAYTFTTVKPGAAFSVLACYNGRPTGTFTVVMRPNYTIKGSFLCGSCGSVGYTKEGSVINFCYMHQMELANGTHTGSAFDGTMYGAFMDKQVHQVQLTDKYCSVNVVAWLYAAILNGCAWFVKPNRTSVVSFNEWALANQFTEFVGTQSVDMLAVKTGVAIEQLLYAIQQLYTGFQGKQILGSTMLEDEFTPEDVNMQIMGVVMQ

With `Cn1cnc(Cn2c(=O)[nH]/c(=N\c3cc4nn(C)cc4cc3Cl)n(Cc3cc(F)c(F)cc3F)c2=O)n1` [CVL201] the IC50 (MERS Mpro protease) was 4960 µM, the CC50 (in vitro [1]) was greater than 100 µM and the CC50 (in vitro [2]) was greater than 100 µM. The CC50 (in vitro [3]) was greater than 100 µM, the CC50 (in vitro [4]) was greater than 100 µM and the CC50 (in vitro [5]) was greater than 100 µM. For the same molecule, the CC50 (in vitro [6]) was greater than 100 µM, the CC50 (in vitro [7]) was greater than 100 µM and the CC50 (in vitro [8]) was greater than 100 µM. The CC50 (in vitro [9]) was greater than 100 µM, the CC50 (Huh7 cells) was greater than 1 microns and the AUC(0-inf) (in vivo; po, 5 mg/kg) was 53900 ng·h/mL. It also gave a Cmax (in vivo; po, 5 mg/kg) of 4520 ng/mL, a half-life (in vivo; po, 5 mg/kg) of 2.89 h and a Tmax (in vivo; po, 5 mg/kg) of 4.67 h.

With `[2H]C([2H])([2H])n1cnc(Cn2c(=O)[nH]/c(=N\c3cc4cn(C)nc4cc3Cl)n(Cc3cc(F)c(F)cc3F)c2=O)n1` [Compound I-2] the half-life at 0.5 μM (in vitro [10]) was 89 h, the “AUC compared with S-217622” value (rat, after oral administration) was 144% and the “Cmax compared with S-217622” value (rat, after oral administration) was 145%. The “AUC compared with S-217622” value [15] was 198%, the “Cmax compared with S-217622” value [15] was 125% and the “T1/2 compared with S-217622” value [15] was 124%. The AUC(0-inf) (in vivo; iv, 0.5 mg/kg, SD rat) was 7940 ng·h/mL, the Cmax (in vivo; iv, 0.5 mg/kg, SD rat) was 2880 ng/mL and the half-life (in vivo; iv, 0.5 mg/kg) was 3.36 h. For the same molecule, the Tmax (in vivo; iv, 0.5 mg/kg, SD rat) was 0.03 h, the AUC(0-inf) (in vivo; po, 5 mg/kg, SD rat) was 65300 ng·h/mL and the Cmax (in vivo; po, 5 mg/kg, SD rat) was 6020 ng/mL. For the same molecule, the half-life (in vivo; po, 5 mg/kg) was 3.04 h and the Tmax (in vivo; po, 5 mg/kg, SD rat) was 2.33 h.

`[2H]C([2H])(c1ncn(C)n1)n1c(=O)nc(Nc2cc3cn(C)nc3cc2Cl)n(Cc2cc(F)c(F)cc2F)c1=O` [Compound I-3] showed a half-life at 0.5 μM (in vitro [10]) of 8.28 h and a half-life at 0.5 μM (in vitro [11]) of 204 h.

`[2H]C([2H])([2H])n1cc2cc(Nc3nc(=O)n(Cc4ncn(C)n4)c(=O)n3Cc3cc(F)c(F)cc3F)c(Cl)cc2n1` [Compound I-5] gave a half-life at 0.5 μM (in vitro [11]) of 29.9 h.

For `[2H]C([2H])([2H])n1cnc(Cn2c(=O)n(COC(=O)OC(C)C)/c(=N\c3cc4cn(C)nc4cc3Cl)n(Cc3cc(F)c(F)cc3F)c2=O)n1` [Compound I-19], the AUC(0-inf) (in vivo; po, 5 mg/kg, SD rat) was 70900 ng·h/mL, the Cmax (in vivo; po, 5 mg/kg, SD rat) was 6180 ng/mL and the half-life (in vivo; po, 5 mg/kg) was 2.91 h. The Tmax (in vivo; po, 5 mg/kg, SD rat) was 3.33 h.

Work on `[2H]C([2H])([2H])n1cnc(Cn2c(=O)nc(Nc3cc4cn(C([2H])([2H])[2H])nc4cc3Cl)n(Cc3cc(F)c(F)cc3F)c2=O)n1` [Compound I-24] yielded an AUC(0-inf) (in vivo; po, 5 mg/kg, SD rat) of 58300 ng·h/mL, a Cmax (in vivo; po, 5 mg/kg, SD rat) of 5210 ng/mL and a half-life (in vivo; po, 5 mg/kg) of 3.51 h. The Tmax (in vivo; po, 5 mg/kg, SD rat) was 4 h.

With `O=c1nc(NO)ccn1[C@@H]1O[C@H](CO)[C@@H](O)[C@H]1O` [EIDD-1931] the CC50 (Huh7 cells) was greater than 10 microns.

In the case of `CC(C)C[C@H](NC(=O)OCc1ccccc1)C(=O)N[C@@H](CC1CCNC1=O)C(O)S(=O)(=O)O` (some centres unmarked) [GC-376], the IC50 (HKU1 Mpro protease) is reported as 0.022 µM and the IC50 (NL63 Mpro protease) is reported as 0.107 µM.

For `CC(C)(C)[C@H](NC(=O)C(F)(F)F)C(=O)N1C[C@H]2[C@@H]([C@H]1C(=O)N[C@H](C#N)C[C@@H]1CCNC1=O)C2(C)C` [PF-07321332], the EC50 (SARS-CoV-2; A549 cells expressing ACE2 protein) is listed as 0.056 µM, the EC50 (SARS-CoV-2; HeLa cells expressing ACE2 protein) is listed as 0.099 µM and the EC50 (SARS-CoV-2; human airway epithelial cells) is listed as 0.062 µM.

For `CC(=O)O[C@H]1C(=O)[C@@]2(C)[C@H]([C@H](OC(=O)c3ccccc3)[C@]3(O)C[C@H](OC(=O)[C@H](O)[C@@H](NC(=O)c4ccccc4)c4ccccc4)C(C)=C1C3(C)C)[C@]1(OC(C)=O)CO[C@@H]1C[C@@H]2O` [Pacitaxel], the CC50 (in vitro [5]; A375, 3 days, read-out: CC50) was 0.0089 µM, the CC50 (in vitro [6]; Molt-4, 3 days, read-out: CC50) was 0.0027 µM and the CC50 (in vitro [7]; HEp2, 3 days, read-out: CC50) was 0.03 µM. The CC50 (in vitro [8]; HIHeLa, 3 days, read-out: CC50) was 0.02 µM and the CC50 (in vitro [9]; [16]) was 0.0034 µM.

Work on `CCC(CC)COC(=O)[C@H](C)N[P@](=O)(OC[C@H]1O[C@@](C#N)(c2ccc3c(N)ncnn23)[C@H](O)[C@@H]1O)Oc1ccccc1` [Remdesivir] yielded a CC50 (Huh7 cells) greater than 1 microns.

In the case of `C=C(C)[C@H]1Cc2c(ccc3c2O[C@@H]2COc4cc(OC)c(OC)cc4[C@@H]2C3=O)O1` [Rotenone, reference compound], the “ratio (CC50 Glu/CC50 Gal)” value (HepG2 cells; human) is reported as 91.7, the CC50 (in vitro [12]; galactose culture HepG2 CC50) is reported as 0.03 µM and the CC50 (in vitro [12]; glucose culture HepG2 CC50) is reported as 2.33 µM.

Work on `O=C(O)/C=C/C(=O)O.[2H]C([2H])([2H])n1cnc(Cn2c(=O)[nH]/c(=N\c3cc4cn(C)nc4cc3Cl)n(Cc3cc(F)c(F)cc3F)c2=O)n1` [SHEN211] yielded a CC50 (in vitro [1]; [17]) greater than 100 µM, a CC50 (in vitro [2]; HepG2, 3 days, read-out: CC50) greater than 100 µM and a CC50 (in vitro [3]; HEK293, 3 days, read-out: CC50) greater than 100 µM. The CC50 (in vitro [4]; MRC-5, 3 days, read-out: CC50) was greater than 100 µM, the CC50 (in vitro [5]; A375, 3 days, read-out: CC50) was greater than 100 µM and the CC50 (in vitro [6]; Molt-4, 3 days, read-out: CC50) was greater than 100 µM. For the same molecule, the CC50 (in vitro [7]; HEp2, 3 days, read-out: CC50) was greater than 100 µM, the CC50 (in vitro [8]; HIHeLa, 3 days, read-out: CC50) was greater than 100 µM and the CC50 (in vitro [9]; [16]) was greater than 100 µM. For the same molecule, the CC50 (Huh7 cells) was greater than 1 microns, the “mitochondrial toxicity to human HepG2 cells” value (HepG2 cells) was “more than 200 μM” and the “difference between the CC50 and EC50” value (HepG2 cells; human) was “more than 476 times”. The AUC(0-inf) (in vivo; po, 5 mg/kg, SD rat) was 45500 ng·h/mL, the Cmax (in vivo; po, 5 mg/kg, SD rat) was 4710 ng/mL and the half-life (in vivo; po, 5 mg/kg) was 3.22 h. For the same molecule, the Tmax (in vivo; po, 5 mg/kg, SD rat) was 2 h, the CC50 (in vitro [12]; galactose culture HepG2 CC50) was 206 µM and the CC50 (in vitro [12]; glucose culture HepG2 CC50) was 202 µM. For the same molecule, the EC50 (SARS-CoV-2 strain) was 0.084 to 0.21 µM.

In the case of `[2H]C([2H])([2H])n1cnc(Cn2c(=O)[nH]/c(=N\c3cc4cn(C)nc4cc3Cl)n(Cc3cc(F)c(F)cc3F)c2=O)n1` [SHEN212], the “AUC0-∞” value (SD rat, PO, 5.0 mg/kg) is reported as 62126.14 ng·h/mL, the Tmax (SD rat, PO, 5.0 mg/kg) is reported as 3.67 h and the “AUC compared with S-217 fumaric acid eutectic group” value (rat, PO) is reported as 115%. The “AUC compared with S-217622 fumaric acid coproduct combined with niacinamide group” value (rat, PO) was 124%, the “Cmax compared with S-217 fumaric acid eutectic group” value (rat, PO) was 132% and the “Cmax compared with S-217622 fumaric acid coproduct combined with niacinamide group” value (rat, PO) was 123%. The “T1/2 compared with S-217622 fumaric acid coproduct combined with niacinamide group” value (rat, PO) was 121%.

For `CNC(=O)c1cc(Oc2ccc(NC(=O)Nc3ccc(Cl)c(C(F)(F)F)c3)cc2)ccn1` [Sorafenib], the CC50 (in vitro [1]; [17]) was 8.72 µM, the CC50 (in vitro [2]; HepG2, 3 days, read-out: CC50) was 5.32 µM and the CC50 (in vitro [3]; HEK293, 3 days, read-out: CC50) was 5.58 µM. For the same molecule, the CC50 (in vitro [4]; MRC-5, 3 days, read-out: CC50) was 13.8 µM.

In the case of `C[C@]12CC[C@H]3[C@@H](CCC4=CC(=O)CC[C@@]43C)[C@@H]1CC[C@@H]2O` [Testosterone], the Cl [13] is reported as 3.28 L/h/kg, the Cla [13] is reported as 6112.8 µL/min/mg and the Clape [13] is reported as 660.186 L/h/kg. For the same molecule, the half-life (in vitro [14]) was 36 s.
